Results published in patent US20150289512A1, “METHOD FOR PROMOTING PLANT GROWTH” (SUMITOMO CHEMICAL COMPANY, LIMITED, priority 2012, published 2015).

How the values were obtained:
[1] = test system: Rice (variety: Nipponbare); test: Test Example 1: promotion of root growth by hydroponics of rice, 10 ppm; assay type: in vivo; settings: Oryza sativa, hydroponic solution containing the test compound at 10 ppm, average of 4 or 5 individuals, read-out: Relative value of length of seminal root (%-untreated control plot)
Outline: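 Surface-sterilised seeds germinated 3 days in the dark at 28° C in hydroponic solution with compound at 10 ppm, then grown 3 days hydroponically with compound at 10 ppm (26° C, 4,000 lux, 16 h day, 50% humidity). Seminal root length measured by image analysis, averaged over 4 or 5 plants per plot.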

[2] = test system: Rice (variety: Nipponbare); test: Test Example 2: promotion of root growth by hydroponics of rice, 1 ppm; assay type: in vivo; settings: Oryza sativa, hydroponic solution containing the test compound at 1 ppm, average of 4 or 5 individuals, read-out: Relative value of length of seminal root (%-untreated control plot)
Outline: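 Surface-sterilized Nipponbare seeds germinated 3 days in dark at 28° C in ¼ Hoagland solution with compound at 1 ppm (DMSO 1/10,000; DMSO-only control), then grown hydroponically 3 days at 26° C, 4,000 lux, 16 h day. Seminal root length averaged over 4–5 plants.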

SMILES | change in vivo at 10 ppm [1] [%] | change in vivo at 1 ppm [2] [%]
O=C(O)c1nc2c(F)cc(F)cc2s1 [Compound 86] | > 5 | > 5
CCOC(=O)c1cc2c(C(F)(F)F)cccc2o1 [Compound 44] | > 5 | > 5
COC(=O)c1oc2ccc(C(F)(F)F)cc2c1NC(=O)C(F)(F)F [Compound 65] | – | > 5
O=C(Nc1ccccc1)c1cc2cc(C(F)(F)F)ccc2o1 [Compound 53] | > 5 | > 5
CCOC(=O)c1oc2cccc(O)c2c1C [Compound 80] | > 5 | > 5
NC(=O)c1oc2ccccc2c1C(F)(F)F [Compound 85] | > 5 | > 5
COC(=O)c1nc2cc(C(F)(F)F)ccc2o1 [Compound 17, methyl 5-trifluoromethylbenzoxazole-2-carboxylate] | – | > 5
O=C(O)c1oc2ccccc2c1C(F)(F)F [Compound 82] | > 5 | > 5
COC(=O)c1oc2ccc(C(F)(F)F)cc2c1NC(C)=O [Compound 63] | > 5 | > 5
Cc1c(C(=O)O)oc2ccccc12 [Compound 36] | > 5 | > 5
COC(=O)c1oc2ccccc2c1N(C(C)=O)C(C)=O [Compound 41] | – | > 5
NC(=O)c1cc2cc(C(F)(F)F)ccc2o1 [Compound 51] | > 5 | > 5
COC(=O)c1oc2ccccc2c1C(F)(F)F [Compound 83] | – | > 5
CNC(=O)c1oc2ccc(C(F)(F)F)cc2c1C(F)(F)F [Compound 75] | > 5 | > 5
CCOC(=O)c1oc2ccc(C(F)(F)F)cc2c1C(F)(F)F [Compound 71] | > 5 | –
COC(=O)c1oc2ccc(C(F)(F)F)cc2c1C(F)(F)F [Compound 70] | – | > 5
NC(=O)c1oc2ccc(C(F)(F)F)cc2c1C(F)(F)F [Compound 74] | > 5 | > 5
COC(=O)c1oc2ccccc2c1NC(C)=O [Compound 40] | > 5 | > 5
O=C(OCc1ccccc1)c1cc2cc(C(F)(F)F)ccc2o1 [Compound 56] | > 5 | > 5

SMILES | change in vivo at 10 ppm [1] [%] | change in vivo at 1 ppm [2] [%]
COC(=O)c1oc2ccc(C(F)(F)F)cc2c1N(C)C [Compound 62] | > 5 | > 5
COC(=O)c1cc2ccccc2o1 [Compound 1] | – | > 5
O=C(OCc1ccccc1)c1oc2ccc(C(F)(F)F)cc2c1C(F)(F)F [Compound 73] | – | > 5
COC(=O)c1oc2ccc(C(F)(F)F)cc2c1C [Compound 33] | > 5 | > 5
O=C(NCc1ccccc1)c1cc2cc(C(F)(F)F)ccc2o1 [Compound 54] | > 5 | > 5
COC(=O)c1cc2c(C(F)(F)F)cccc2o1 [Compound 45] | – | > 5
O=C(NCc1ccccc1)c1oc2ccc(C(F)(F)F)cc2c1C(F)(F)F [Compound 77] | – | > 5
O=C(Oc1ccccc1)c1cc2cc(C(F)(F)F)ccc2o1 [Compound 55] | > 5 | > 5
CNC(=O)c1cc2cc(C(F)(F)F)ccc2o1 [Compound 52] | > 5 | > 5
COC(=O)c1oc2ccc(C(F)(F)F)cc2c1NS(=O)(=O)c1ccccc1 [Compound 68] | > 5 | > 5
COC(=O)c1oc2ccccc2c1C [Compound 37] | > 5 | > 5
COC(=O)c1oc2ccccc2c1NC(=O)C(F)(F)F [Compound 39] | > 5 | –
COC(=O)c1cc2cc(C(F)(F)F)ccc2o1 [Compound 3, methyl 5-(trifluoromethyl)benzofuran-2-carboxylate] | – | > 5
COC(=O)c1oc2ccc(C(F)(F)F)cc2c1NS(C)(=O)=O [Compound 67] | > 5 | > 5
Cc1c(C(=O)O)oc2ccc(C(F)(F)F)cc12 [Compound 34] | – | > 5
O=C(O)c1cc2c(C(F)(F)F)cccc2o1 [Compound 43] | > 5 | > 5
O=C(O)c1oc2ccc(C(F)(F)F)cc2c1C(F)(F)F [Compound 69] | > 5 | > 5
O=C(Nc1ccccc1)c1oc2ccc(C(F)(F)F)cc2c1C(F)(F)F [Compound 76] | > 5 | > 5
COC(=O)c1oc2ccc(C(F)(F)F)cc2c1O [Compound 50] | > 5 | > 5
